For series [1], the system named is HepG2 cells. The series is described as follows: ECM cell invasion assay (colorimetric), HepG2. Type of series: cell-based, human. On the procedure:
(§1) The anti-invasion effects of 2 and 3 were examined using a Cell Invasion Assay Kit (ECM550, CHEMICON—Millipore Co., Billerica, MA, USA). In brief, 10^5 tumor cells were suspended in medium with 10% FBS and plated into the upper chamber, containing 8 μm pore size polycarbonate membrane precoated with ECMatrix, followed by filling the lower chamber with the same medium, enriched with the investigated compounds. Afterwards, cells were incubated for 24 h and allowed to invade towards the bottom chamber (with medium + 10% FBS). The non-invading cells on the upper membrane surface were removed with a cotton swab and the invasive cells, i.e., cells attached to the lower membrane surface, were stained with 0.1% crystal violet. For colorimetric quantitation, the stained cells were dissolved in 10% acetic acid (200 μL/well) and the obtained solution was transferred to a 96-well plate for spectrometric measurements, at a wavelength of 560 nm.

Series [2] has as its system human red blood cells (RBCs). The series is described as follows: In vitro hemolysis assay. The series is classed as cell-based. Particulars: 30 min, 37 °C, at IC50 values for HepG2. The method, then: The hematologic toxicity of the most cytotoxic TZD–TSCs, compounds 2 and 3, was tested via in vitro hemolysis assay, following a 30 min treatment of human RBCs at 37 °C with these compounds.
Human red blood cell (RBC) concentrate was obtained from the Regional Blood Donation and Transfusion Centre (Lublin, Poland). The RBC concentrate (5 mL) was washed three times with sterile PBS and centrifuged at 500 g for 3 minutes. The obtained pellet was suspended in sterile PBS to obtain a 2% suspension, which was subsequently mixed with 1 mL of solution of TZD–TSCs 2 and 3. […] The mixtures were incubated at 37 °C for 30 min and, subsequently, centrifuged at 1400× g for 10 min. The amount of free hemoglobin in the supernatants was measured spectrophotometrically at 405 nm. Negative and positive controls were performed by incubating RBCs with sterile PBS and 0.1% Triton-X, respectively. Each experiment was run in triplicate.

Series [3] in a line: Ferric-reducing antioxidant power (FRAP) assay. An excerpt: Antioxidant activity is a complex procedure, usually happening through several multiple or predominant chemical mechanisms (i.e., hydrogen atom transfer (HAT), single electron transfer (SET), and the ability to chelate transition metals), and it is influenced by many factors, which cannot be fully described with one single method. Therefore, it is important to perform more than one type of measurement to take into account the various mechanisms of antioxidant action. In this study, to assess the antioxidant activity of TZD–TSCs 2–5, two complementary tests were used: a DPPH (2,2-diphenyl-1-picrylhydrazyl) free radical-scavenging ability assay, that detects the HAT and SET mechanisms, and a FRAP (ferric reducing antioxidant power) assay, that prefers the […] mechanism. The antioxidant powers of 2–5 were compared to standard antioxidants, such as the water-soluble synthetic analogue of vitamin E (Trolox) and ascorbic acid (vitamin C).
Each compound concentration (25, 75, 150, and 200 μg/mL, respectively) was dissolved in Milli-Q water and mixed with an equal volume of 0.2 M sodium phosphate buffer (pH 6.6) and 1% potassium ferricyanide. The mixture was incubated for 30 min at 37 °C. Thereafter, 10% trichloroacetic acid (w/v) was added and the mixture was centrifuged at 1000 g for 5 min. One mL of the upper layer was mixed with an equal volume of Milli-Q water and 0.1% ferric chloride. The absorbance was read at 700 nm using an EL800 Universal Microplate Reader (BioTek Instruments, Winooski, VT, USA). Ascorbic acid (0–150 μg/mL) was used as a positive control.

Series [4] relates to T98G cells. Nature of the series: MTT assay, T98G. The series is classed as cell-based, human. Particulars: for IC50: Homo sapiens, T98G, MTT, 24 h treatment, mean ± SD; for SI (selectivity index): IC50 CCD 841 CoTr divided by IC50 T98G. The method, then: (§2) The effects of TZD–TSCs 2–5 on the cellular viability of a panel of cell lines were investigated through an 3-(4,5-dimethylthiazol-2-yl)-2,5-diphenyl-2H-tetrazolium bromide (MTT) assay, following a 24 h treatment with the compounds. The panel consisted of three solid tumor cells: T98G (glioblastoma multiforme), HepG2 (hepatocellular carcinoma, epithelial), and HT29 (colon adenocarcinoma, epithelial), as well as noncancerous cells CCD 841 CoTr (normal colon, epithelial).
(§3) Primary single dose screenings of TZD–TSCs 2–5 were performed at a concentration of 200 μg/mL, and those that elicited a greater than 80% inhibition of cell proliferation were analyzed at several concentrations, to find their half-maximal inhibitory concentration (IC50). The IC50 values, reported as the mean ± SD in Table 2, indicate the concentration of the tested compound that inhibits the growth/viability of the cancer cell population by 50%. In this specific case of an MTT assay, which measures the activity of mitochondrial dehydrogenases (as an indicator of cell viability), the IC50 values stand for the concentration that inhibits the metabolic activity of cells by 50%.
(§4) Human colon adenocarcinoma cells, HT29 (ATCC no. HTB-38), derived from a grade I tumor, were cultured in roswell park memorial institute Medium (RPMI) 1640 medium, supplemented with 10% fetal calf serum (FCS) (GibcoTM, Paisley, UK) and antibiotics (100 U/mL penicillin and 100 μg/mL streptomycin) (Sigma, St. Louis, MO), at 37 °C in a humidified atmosphere with 5% CO2. Human normal colon epithelial cells, CCD 841 CoTr (ATCC no. CRL-1807), were cultured in RPMI 1640 + dulbecco’s modified eagle medium (DMEM) (1:1) medium (Sigma, St. Louis, MO), supplemented with 10% FCS and antibiotics, at 34 °C in a 5% CO2/95% air atmosphere. Human glioblastoma T98G cells were cultured in Dulbecco’s Modified Eagle’s Medium (DMEM) (Sigma Aldrich, St. Louis, MO, USA), supplemented with 10% fetal bovine serum (FBS), penicillin (100 U/mL), and streptomycin (100 μg/mL). Human hepatocellular carcinoma cells, HepG2, were maintained in Eagle’s Minimum Essential Medium, supplemented with 10% FBS, penicillin (100 U/mL), and streptomycin (100 μg/mL).
(§5) After 24 h of incubation of the cells with the tested compounds in 100 μL of culture medium, MTT solution (5 mg/mL, 25 μL/well) was added and incubated for an additional 3 h. The purple crystals of formazan which formed in the medium were solubilized overnight in 10% sodium dodecyl sulphate (SDS) in a 0.01 M HCl mixture. The product was quantified spectrophotometrically by measuring its absorbance at 570 nm using an Emax Microplate Reader (Molecular Devices Corporation, Menlo Park, CA, USA).
(Tetrazolium assays rely on reduction of a dye to a coloured formazan, in cell work by metabolically active cells.)

The test system of series [5] is HepG2 cells. Nature of the series: MTT assay, HepG2. The series is classed as cell-based, human. Particulars: for IC50: Homo sapiens, HepG2, MTT, 24 h treatment, mean ± SD; for SI (selectivity index): IC50 CCD 841 CoTr divided by IC50 HepG2. The method, then: as §2, §3, §4, §5
The test system of series [6] is T98G cells. Nature of the series: ECM cell invasion assay (colorimetric), T98G. Type of series: cell-based, human. On the procedure: as §1

The text below walks through data of paper PMC10743653, “Combined In Silico and In Vitro Analyses to Assess the Anticancer Potential of Thiazolidinedione–Thiosemicarbazone Hybrid Molecules” (International Journal of Molecular Sciences, 2023).

Turning to `O=C(C=C1SC(=O)NC1=O)Oc1ccccc1C=NNC(=S)Nc1ccccc1Cl` [TZD–TSC 2], the “Invasion through artificial ECM model” value in the series on HepG2 cells [1] (HepG2, 1/10 IC50 to IC50, 24 h) was “exhibited inhibitory effects”; in the series with HepG2 cells [1] (HepG2, lowest concentration tested (1/10 of the IC50), 24 h), “did not reduce the number of invaded cells”; in the series with T98G cells [6] (1/10 IC50 to IC50, 24 h) it was “exhibited inhibitory effects”; with T98G cells [6] (1/10 of the IC50 doses, 24 h), “statistically significantly inhibited”. For the same compound, the “Hemolytic activity (free hemoglobin released)” value in series [2] was “no specific hemolytic activity”. Besides, the “FRAP reduction value corresponding to concentration of ascorbic acid” value came to 2.43 µg/mL in series [3] (compound at 25 μg/mL), 4.32 µg/mL in series [3] (compound at 75 μg/mL), 3.51 µg/mL in series [3] (compound at 150 μg/mL) and 7.84 µg/mL in series [3] (compound at 200 μg/mL). For the same compound, the IC50 (as a rule, the concentration at which inhibition is half-maximal) came to 26.8 ± 1.54 µM with T98G cells [4] and 10.4 ± 0.72 µM with HepG2 cells [5]. In addition, the results for the “SI (selectivity index)” value in the series with T98G cells [4] and in the series with HepG2 cells [5] were 1.66 and 4.30, respectively.

For the compound `O=C(C=C1SC(=O)NC1=O)Oc1ccccc1C=NNC(=S)Nc1cccc(Cl)c1` [TZD–TSC 3], the “Invasion through artificial ECM model” value is recorded as “exhibited inhibitory effects” in the series on HepG2 cells [1] (HepG2, 1/10 IC50 to IC50, 24 h); “exhibited inhibitory effects” in the series with T98G cells [6] (1/10 IC50 to IC50, 24 h); “statistically significantly inhibited” with T98G cells [6] (1/10 of the IC50 doses, 24 h). The “Hemolytic activity (free hemoglobin released)” value in series [2] is “no specific hemolytic activity”. Besides, the “FRAP reduction value corresponding to concentration of ascorbic acid” value in series [3] (compound at 25 μg/mL) is 0.81 µg/mL; in series [3] (compound at 75 μg/mL) it was 0.27 µg/mL; in series [3] (compound at 150 μg/mL) it was 1.08 µg/mL; in series [3] (compound at 200 μg/mL), 1.89 µg/mL. Also, the IC50 with T98G cells [4] amounted to 28.3 ± 2.21 µM; in the series with HepG2 cells [5] it was 2.97 ± 0.39 µM. In addition, the results for the “SI (selectivity index)” value in the series on T98G cells [4] and in the series on HepG2 cells [5] were 3.54 and 33.80, respectively.
